Results as given in PubChem BioAssay (NCI).
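Cultured in 96-well plates, cells were exposed to test compound for 48 hours across five concentrations. The concentration for 50% growth inhibition is given as GI50. TGI: concentration producing complete growth inhibition.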

Tests used:
Test in all cases: inhibition of tumour cell growth, NCI panel, 48 h
RXF 393 renal = test system: RXF 393 renal
LOX IMVI melanoma = test system: LOX IMVI melanoma
SK-MEL-28 melanoma = test system: SK-MEL-28 melanoma
UO-31 renal = test system: UO-31 renal
SN12C renal = test system: SN12C renal
SNB-75 CNS = test system: SNB-75 CNS
UACC-257 melanoma = test system: UACC-257 melanoma
SF-539 CNS = test system: SF-539 CNS
DU-145 prostate = test system: DU-145 prostate
A498 renal = test system: A498 renal
NCI-H23 lung = test system: NCI-H23 lung
CAKI-1 renal = test system: CAKI-1 renal
SR leukemia = test system: SR leukemia
SK-MEL-5 melanoma = test system: SK-MEL-5 melanoma
HCT-15 colon = test system: HCT-15 colon
HT29 colon = test system: HT29 colon
SW-620 colon = test system: SW-620 colon
SF-295 CNS = test system: SF-295 CNS
KM12 colon = test system: KM12 colon
RPMI-8226 leukemia = test system: RPMI-8226 leukemia
HCC-2998 colon = test system: HCC-2998 colon
SK-OV-3 ovarian = test system: SK-OV-3 ovarian
MDA-MB-231 breast = test system: MDA-MB-231 breast
MDA-MB-435 = test system: MDA-MB-435
OVCAR-3 ovarian = test system: OVCAR-3 ovarian
NCI-H522 lung = test system: NCI-H522 lung
786-0 renal = test system: 786-0 renal
EKVX NSCLC = test system: EKVX NSCLC
SF-268 CNS = test system: SF-268 CNS
K-562 leukemia = test system: K-562 leukemia
OVCAR-8 ovarian = test system: OVCAR-8 ovarian
MOLT-4 leukemia = test system: MOLT-4 leukemia
SNB-19 CNS = test system: SNB-19 CNS
COLO 205 colon = test system: COLO 205 colon
NCI/ADR-RES ovarian = test system: NCI/ADR-RES ovarian
U251 CNS = test system: U251 CNS
HOP-92 NSCLC = test system: HOP-92 NSCLC
ACHN renal = test system: ACHN renal
HOP-62 NSCLC = test system: HOP-62 NSCLC
HS 578T breast = test system: HS 578T breast
M14 melanoma = test system: M14 melanoma
T-47D breast = test system: T-47D breast
MALME-3M melanoma = test system: MALME-3M melanoma
BT-549 breast = test system: BT-549 breast
A549 NSCLC = test system: A549 NSCLC
IGROV1 ovarian = test system: IGROV1 ovarian
HL-60(TB) leukemia = test system: HL-60(TB) leukemia
SK-MEL-2 melanoma = test system: SK-MEL-2 melanoma
MCF7 breast = test system: MCF7 breast
TK-10 renal = test system: TK-10 renal
NCI-H226 lung = test system: NCI-H226 lung
PC-3 prostate = test system: PC-3 prostate
NCI-H460 lung = test system: NCI-H460 lung
OVCAR-5 ovarian = test system: OVCAR-5 ovarian
OVCAR-4 ovarian = test system: OVCAR-4 ovarian
HCT-116 colon = test system: HCT-116 colon
UACC-62 melanoma = test system: UACC-62 melanoma
CCRF-CEM leukemia = test system: CCRF-CEM leukemia

COc1ccc(C(=O)Nc2ncc(Cc3ccccc3Cl)s2)cc1
GI50 (RXF 393 renal): 0.126 µM | TGI (RXF 393 renal): 1.41 µM | GI50 (LOX IMVI melanoma): 0.259 µM | TGI (LOX IMVI melanoma): > 35 µM | GI50 (SK-MEL-28 melanoma): 1.55 µM | TGI (SK-MEL-28 melanoma): > 66.4 µM | GI50 (UO-31 renal): 0.696 µM | TGI (UO-31 renal): 38.1 µM | GI50 (SN12C renal): 0.309 µM | TGI (SN12C renal): 20.4 µM | GI50 (SNB-75 CNS): 0.201 µM | TGI (SNB-75 CNS): 6.02 µM | GI50 (UACC-257 melanoma): 5.87 µM | TGI (UACC-257 melanoma): > 65.5 µM | GI50 (SF-539 CNS): 0.179 µM | TGI (SF-539 CNS): 0.842 µM | GI50 (DU-145 prostate): 0.415 µM | TGI (DU-145 prostate): 14.2 µM | GI50 (A498 renal): 6.54 µM | TGI (A498 renal): 33.7 µM | GI50 (NCI-H23 lung): 0.625 µM | TGI (NCI-H23 lung): 30.5 µM | GI50 (CAKI-1 renal): 0.138 µM | TGI (CAKI-1 renal): 16.6 µM | GI50 (SR leukemia): 0.0398 µM | TGI (SR leukemia): > 100 µM | GI50 (SK-MEL-5 melanoma): 0.307 µM | TGI (SK-MEL-5 melanoma): 6.44 µM | GI50 (HCT-15 colon): 0.0593 µM | TGI (HCT-15 colon): 13.2 µM | GI50 (HT29 colon): 0.128 µM | TGI (HT29 colon): 2.23 µM | GI50 (SW-620 colon): 0.106 µM | TGI (SW-620 colon): > 100 µM | GI50 (SF-295 CNS): 0.214 µM | TGI (SF-295 CNS): 6.43 µM | GI50 (KM12 colon): 0.14 µM | TGI (KM12 colon): 23 µM | GI50 (RPMI-8226 leukemia): 0.27 µM | TGI (RPMI-8226 leukemia): > 100 µM | GI50 (HCC-2998 colon): 0.24 µM | TGI (HCC-2998 colon): 3.66 µM | GI50 (SK-OV-3 ovarian): 0.372 µM | TGI (SK-OV-3 ovarian): 16.6 µM | GI50 (MDA-MB-231 breast): 0.437 µM | TGI (MDA-MB-231 breast): 20 µM | GI50 (MDA-MB-435): 0.0316 µM | TGI (MDA-MB-435): 0.122 µM | GI50 (OVCAR-3 ovarian): 0.191 µM | TGI (OVCAR-3 ovarian): 5.22 µM | GI50 (NCI-H522 lung): 0.118 µM | TGI (NCI-H522 lung): 0.387 µM | GI50 (786-0 renal): 0.4 µM | TGI (786-0 renal): 22.6 µM | GI50 (EKVX NSCLC): 1.79 µM | TGI (EKVX NSCLC): 38.6 µM | GI50 (SF-268 CNS): 1.58 µM | TGI (SF-268 CNS): 58.3 µM | GI50 (K-562 leukemia): 0.06 µM | TGI (K-562 leukemia): > 100 µM | GI50 (OVCAR-8 ovarian): 0.462 µM | GI50 (MOLT-4 leukemia): 0.266 µM | TGI (MOLT-4 leukemia): > 100 µM | GI50 (SNB-19 CNS): 0.404 µM | TGI (SNB-19 CNS): 19.2 µM | GI50 (COLO 205 colon): 0.264 µM | TGI (COLO 205 colon): 1.03 µM | GI50 (NCI/ADR-RES ovarian): 0.145 µM | TGI (NCI/ADR-RES ovarian): 3.79 µM | GI50 (U251 CNS): 0.288 µM | TGI (U251 CNS): 23.1 µM | GI50 (HOP-92 NSCLC): 11.8 µM | TGI (HOP-92 NSCLC): > 80.2 µM | GI50 (ACHN renal): 0.502 µM | TGI (ACHN renal): 18.3 µM | GI50 (HOP-62 NSCLC): 0.667 µM | TGI (HOP-62 NSCLC): 18.7 µM | GI50 (HS 578T breast): 0.309 µM | TGI (HS 578T breast): 23.6 µM | GI50 (M14 melanoma): 0.162 µM | TGI (M14 melanoma): > 36.6 µM | GI50 (T-47D breast): 2.09 µM | TGI (T-47D breast): > 56.7 µM | GI50 (MALME-3M melanoma): 1.12 µM | TGI (MALME-3M melanoma): 23.1 µM | GI50 (BT-549 breast): 0.427 µM | TGI (BT-549 breast): 11 µM | GI50 (A549 NSCLC): 0.435 µM | TGI (A549 NSCLC): > 47.4 µM | GI50 (IGROV1 ovarian): 0.486 µM | TGI (IGROV1 ovarian): 26.8 µM | GI50 (HL-60(TB) leukemia): 0.0873 µM | TGI (HL-60(TB) leukemia): 1.95 µM | GI50 (SK-MEL-2 melanoma): 0.176 µM | TGI (SK-MEL-2 melanoma): 3.83 µM | GI50 (MCF7 breast): 0.137 µM | TGI (MCF7 breast): > 34.5 µM | GI50 (TK-10 renal): 11.9 µM | TGI (TK-10 renal): 41.1 µM | GI50 (NCI-H226 lung): 0.283 µM | TGI (NCI-H226 lung): 2.53 µM | GI50 (PC-3 prostate): 0.274 µM | TGI (PC-3 prostate): > 68.4 µM | GI50 (NCI-H460 lung): 0.147 µM | TGI (NCI-H460 lung): 5.2 µM | GI50 (OVCAR-5 ovarian): 0.406 µM | TGI (OVCAR-5 ovarian): 22.6 µM | GI50 (OVCAR-4 ovarian): 2.07 µM | TGI (OVCAR-4 ovarian): 30 µM | GI50 (HCT-116 colon): 0.114 µM | TGI (HCT-116 colon): 15.7 µM | GI50 (UACC-62 melanoma): 0.127 µM | TGI (UACC-62 melanoma): 16.3 µM | GI50 (CCRF-CEM leukemia): 0.148 µM | TGI (CCRF-CEM leukemia): > 100 µM
